≈ marks a conversion by molar mass, not a printed value. Where two headings read alike, the source gives them in different places.
How the values were obtained:
[1] = tested on: brown planthoppers (Nilaparvata lugens Stal); assay: Utility Example-1: LC50 on adult brown planthoppers on dipped rice plants; format: in vivo; details: Nilaparvata lugens, 24 h, 25° C., read-out: Pesticidal activity LC50
In short: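 Rice plants 4 weeks from sowing were dipped in water-diluted 1% emulsifiable concentrate at set concentrations and air-dried. Thirty adult N. lugens were caged on each pot, held at 25 °C.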

[2] = tested on: carp and water flea; assay: Fish toxicity ranking according to Japanese regulations; set-up: species or system Cyprinus carpio L; Daphnia pulex; details: from TLm for carp and water flea
In short: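 Ranking per Japanese agrochemical regulations from median tolerance limits: A = carp TLm (48 hrs.) >10 ppm and water flea TLm (3 hrs.) >0.5 ppm; B = carp 10-0.5 ppm, or carp >10 ppm with water flea <0.5 ppm; C = carp TLm (48 hrs.) <0.5 ppm.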

[3] = tested on: guppies (Lebistes reticulatus); assay: Fish toxicity test with guppies; format: in vivo; details: Table 1; 48 hrs.
Protocol: (§1) Fish toxicity test with guppies (Lebistes reticulatus)
(§2) To 5 liters of water were added 250 mg of Sorpol SM-200 (trademark, Toho Chemical Co., Ltd.) as a surfactant and 2.5 ml of an acetone solution containing one of the test compounds in a predetermined concentration. The mixture was stirred thoroughly to prepare a test water. Ten female guppies (Lebistes reticulatus) of from 3 to 4 months of age were released into the test water which was maintained at 20° C. and the TLm (median tolerance limit, ppm) was determined.

[4] = Fish toxicity test with guppies; format: in vivo, Lebistes reticulatus; details: guppy, water, guppies, 20° C., read-out: TLm (48 hrs.)
Protocol: as §1, §2

[5] = Acute toxicity test in rat by the oral route; format: in vivo; details: in vivo, male rat, in olive oil, after 7 days
Description: (§3) Acute toxicity test in rat by the oral route

[6] = tested on: houseflies (Musca domestica); assay: Mortality test with houseflies by topical application method; details: 24 h; for mortality at 0.001 mg: read-out: Pesticidal effect, housefly
[7] = tested on: crop plants; assay: Phytotoxicity test; format: in vivo; details: 2,000 ppm solution on leaves, after 10 days
Description: A 2,000 ppm solution of each of the cis- and trans-isomers and a 50:50 mixture of cis- and trans-isomers of Compound (1) and of Compound (2), and a 50:50 mixture of the cis- and trans-isomers of Compound (B) and Compound (E) was applied to the leaves of the following crop plants.
After 10 days, the crop plants were examined for their phytotoxicities.

[8] = Fish toxicity safety factor (TLm divided by maximum concentration in cover water); set-up: species or system carp; details: in vivo, TLm / maximum concentration in cover water at LC50 application (100 l per 10 ares, 5 cm depth)
In short: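 Calculated index: carp TLm (ppm) divided by the maximum compound concentration expected in paddy cover water. That concentration assumes 100 l of solution at the pest LC50 applied per 10 ares onto 5 cm deep cover water, all of it entering the water.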

[9] = tested on: rice stem borers (Chilo suppressalis Walker); assay: Mortality test with rice stem borers by topical application method; format: in vivo; details: 24 h; for mortality at 0.001 mg: read-out: Pesticidal effect, rice stem borer
Protocol: Mortality test with rice stem borers (Chilo suppressalis Walker) by topical application method
Using a microsyringe, 0.5 μl of the above solution was applied to the thoracic abdominal region of each final-instar larva of rice stem borer (Chilo suppressalis Walker). […] The test larvae were used in groups of 20 individuals each.

[10] = tested on: green rice leafhoppers (Nephotettix cincticeps Uhler); assay: Mortality test with green rice leafhoppers by topical application method; details: Nephotettix cincticeps, in Oryza sativa, 24 h; for mortality at 10 ng: read-out: Pesticidal effect, green rice leafhopper
Protocol: Mortality test with green rice leafhoppers (Nephotettix cincticeps Uhler) by topical application method
Then, the insects were kept at 25° C. with access to rice plant seedlings. The insects were used in groups of 15 individuals each.

[11] = tested on: tobacco cutworms (Prodenia litura Fabricius); assay: Mortality test with tobacco cutworms by topical application method; format: in vivo; details: 24 h
Protocol: Mortality test with tobacco cutworms (Prodenia litura Fabricius) by topical application method
Using a microsyringe, 0.5 μl of the above solution was dripped onto the thoracic adbominal region of each of 3-instar tobacco cutworm (Prodenia litura Fabricius) larvae. […] The test larvae were used in groups of 20 individuals each.

[12] = Fish toxicity test with carp; format: in vivo, Cyprinus carpio L; details: carp, water, 48 hrs., 21±1° C.; read-out: TLm, Carp (48 hrs.)
In short: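 Compound in acetone with Tween-20 dispersed in 50 L aerated water at a set concentration; five carp (about 6 g, 6 cm) exposed at 21±1° C. Deaths checked after 48 h, and TLm (median tolerance limit, ppm) determined.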

[13] = tested on: green rice leafhoppers (Nephotettix cincticeps Uhler); assay: Utility Example-4: 0.2% dust on rice seedlings, green rice leafhoppers; format: in vivo; details: 5 kg per 10 ares, 24 hours, resistant to organophosphorus and carbamate pesticides
Description: (§4) A 0.2% dust preparation of each of the cis- and trans-isomers and a 50:50 mixture of the cis- and trans-isomers of Compound (1) and of Compound (2) as prepared by the procedure described in Formulation Example-3 was applied to rice seedlings by means of a bell-jar duster at the rate of 5 kg per 10 ares. […] In all cases, the mortality was not less than 90%.

[14] = tested on: rat; assay: Acute toxicity test in rat by the oral route; format: in vivo; details: Table 1, rat, 10080 min
Description: as §3

[15] = tested on: small brown planthoppers (Laodelphax striatellus Fallen); assay: Utility Example-3: spray on rice plants, small brown planthoppers; format: in vivo; details: 7 ml/pot, 24 hours
Protocol: (§5) A 30% emulsifiable concentrate of each of the cis- and trans-isomers and a 50:50 mixture of the cis- and trans-isomers of Compound (1) and of Compound (2) as prepared by the procedure described in Formulation Example-1 was diluted with water to a concentration of 80 ppm as active compound. Rice plants 4 weeks after sowing in pots (each pot 6 cm in diameter, 7 seedlings) were sprayed with the above diluted solution at the rate of 7 ml/pot and, after drying in the air, each pot was covered with a wire-mesh cage. Then, 30 adult small brown planthoppers (Laodelphax striatellus Fallen) were released into the cage. The pots were kept in a constant-temperature chamber at 25° C. […] In all groups, the mortality was not less than 90%.

[16] = tested on: tobacco cutworm (Prodenia litura); assay: Utility Example-5: spray on soy bean leaves, tobacco cutworm larvae; format: in vivo; details: 48 h; 13 ppm; 2 days
Protocol: An acetone solution of one of the test compounds as mentioned in Table 13 and Tween-20 (the same surfactant as mentioned hereinbefore) was prepared. This acetone solution was diluted with water to prepare a solution containing the test compound in a predetermined concentration. Leaves of soy bean in pots were sprayed with the above diluted solution at the rate of 20 ml/pot and, after one day, ten 3-instar larvae of tobacco cutworm (Prodenia litura) were released on the leaves. The pots were kept in a constant-temperature chamber at 25° C.

[17] = tested on: killifish (Orizias latipes); assay: Fish toxicity test with killifish; format: in vivo; details: Table 1; 48 hrs.
In short: (§6)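 Test compound dispensed from acetone solution into water at set concentrations; ten aerated-water killifish (~0.25 g, ~2.5 cm) held at 25±1° C. Deaths scored after 48 hours; TLm (median tolerance limit, ppm) determined.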

[18] = Fish toxicity test with killifish; format: in vivo, Orizias latipes; details: water, killifish, 25±1° C., read-out: TLm (48 hrs.)
In short: as §6

[19] = tested on: two-spotted spider mites (Tetranychus urticae Koch); assay: Mortality test with two-spotted spider mites by spray application method; format: in vivo; details: 48 h, 200 ppm spray, two days, read-out: Percent decrease of population (%)
Protocol: Mortality test with two-spotted spider mites (Tetranychus urticae Koch) by spray application method
To a 5% aqueous solution of acetone was added dropwise a small amount of Tween-20 (polyethylene sorbitan monolaurate) as a surfactant. […] From 30 to 50 adult two-spotted spider mites (Tetranychus urticae Koch) were released on the leaves of kidney-bean plants in the dicotyledonous stage in a pot 9 cm in diameter, followed by a spray application of the above solution. The pot was kept in a constant-temperature chamber at 26° C. and two days later the mites were examined for deaths. The percent decrease of population was then calculated.

[20] = tested on: green rice leafhoppers (Nephotettix cincticeps); assay: Utility Example-6: 0.5% dust on rice seedlings, green rice leafhoppers; format: in vivo; details: 1 kg per 10 ares, 24 hours, resistant to organophosphorus and carbamate pesticides
Description: as §4, with “A 0.5%” for “A 0.2%”, “Formulation Example-4” for “Formulation Example-3”, “of 1” for “of 5”, “ares. Then, 30 green rice leafhoppers (Nephotettix cincticeps) resistant to organophosphorus and carbamate pesticides were released.” for “ares.”

[21] = tested on: brown planthoppers (Nilaparvata lugens); assay: Utility Example-7: 0.5% dust on rice seedlings, brown planthoppers; format: in vivo; details: 1 kg per 10 ares, 24 hours
Description: as §4, with “A 0.5%” for “A 0.2%”, “Formulation Example-4” for “Formulation Example-3”, “rice seedlings, on which 30 adult brown planthoppers (Nilaparvata lugens) were released,” for “rice seedlings”, “of 1” for “of 5”

[22] = tested on: green rice leafhoppers (Nephotettix cincticeps Uhler); assay: Utility Example-2: spray on rice plants, green rice leafhoppers; format: in vivo; details: 7 ml/pot, 24 hours
Protocol: as §5, with “and” for “and of”, “above” for “above diluted”, “Then, 20 female” for “Then, 30”, “adult green rice leafhoppers (Nephotettix cincticeps Uhler)” for “adult small brown planthoppers (Laodelphax striatellus Fallen)”, “The caged” for “The”, “mortality values were” for “mortality was”

[23] = read-out: Pesticidal effect, tobacco cutworm

Row | SMILES | Toxicity to fish TLm, guppy [3] [ppm] | LC50 at 48 h [4] [mg/L] | LD50 at 168 h [5] [mg/kg] | mortality at 0.5 µg/female [6] [%] | mortality at 1 µg/female [6] [%] | mortality at 0.001 mg [6] [%] | mortality at 1 µg/larva [9] [%] | mortality at 10 µg/larva [9] [%] | mortality at 0.001 mg [9] [%] | mortality at 0.01 µg/female [10] [%] | mortality at 0.1 µg/female [10] [%] | mortality at 1 µg/female [10] [%] | mortality at 10 ng [10] [%] | mortality at 0.0001 mg [11, 23] [%] | other results
1 | CC(C)C(C(=O)OC(C#N)c1cccc(Oc2ccccc2)c1)c1ccc(Cl)cc1 (stereo not drawn) [Compound (E), Fenvalerate] | < 0.5 | < 0.5 | 440 | 100 | 100 | 100 | 100 | 100 | 100 | 100 | 100 | 100 | 100 | 100 | LC50 [1]: 1550 mg/L (≈ 3690 µM); Ranking [2]: C (TLm (48 hrs.) value <0.5 ppm for carp, wherein toxicity to fishes is so strongly observed by usual application that both the application method and application area are strictly restricted.); phytotoxicity [7]: caused chlorosis to each one of the crop plants and did large damage to the same; selectivity ratio [8]: 0.001; LC50 at 48 h [12]: 0.0032 mg/L (≈ 0.00762 µM)
2 | CC1(C)C(C=C(Cl)Cl)C1C(=O)OCc1cccc(Oc2ccc(Cl)cc2)c1 (stereo not drawn) [Compound (1) cis-/trans- = 50:50, 3-(4-chlorophenoxy)benzyl 2,2-dimethyl-3-(2,2-dichlorovinyl)cyclopropanecarboxylate] | > 5 | > 5 | > 3000 | 100 | 100 | 100 | 100 | 100 | 100 | 100 | 100 | 100 | 100 | 100 | mortality [13]: not less than 90%; Acute oral toxicity to rat LD50 [14]: > 3000 mg/kg; mortality at 80 ppm [15]: ≥ 90%; mortality at 13 ppm [16]: 100%; LD50 ([10]; read-out: LD50 (median lethal dose), topical, green rice leafhoppers): 1.32 mg/kg; Toxicity to fish TLm, killifish [17]: > 10 ppm; LC50 at 48 h [18]: > 10 mg/L; mortality at 200 ppm [19]: 100%; mortality [20]: not less than 90%; mortality [21]: not less than 90%; mortality at 0.0001 mg [11]: 100%; mortality at 80 ppm [22]: ≥ 90%
